The target in series [1] is T1, Growth hormone secretagogue receptor type 1 (Homo sapiens, UniProt Q92847). The series is described as follows: Inverse agonist activity at SNAP-tagged human GHSR expressed in HEK293T cells assessed as reduction in inositol phosphate production after 30 mins by HTRF assay. Type of series: functional, cell-based.
Series [2] has as its target T1, Growth hormone secretagogue receptor type 1. The series is described as follows: Displacement of […] from SNAP-tagged human GHSR expressed in HEK293T cells after 3 hrs by HTRF assay. The class given is cell-based. On the technique in general: Loss of bound radioactivity is the signal in a displacement assay; it reports binding, not function.
Series [3] deals with Mus musculus. As to the kind of experiment: Anorexigenic activity in C57BL/6J mouse assessed as reduction in ghrelin-induced food intake at 0.6 nmol/g body weight, sc measured after 2 hrs post dose. Type of series: functional, organism-based.
Series [4] concerns the target T1, Growth hormone secretagogue receptor type 1. As to the kind of experiment: Competitive antagonist activity at human SNAP-tagged GHSR expressed in HEK293T cells assessed as reduction in ghrelin-induced calcium production at 1 uM after 15 mins by Fluo 4-AM dye-based fluorescence assay. The class given is functional, cell-based. The following applies: read-out: pA2 (converted).

Series [5] concerns Mus musculus. The series is described as follows: Effect on food intake in C57BL/6J mouse at 0.6 nmol/g body weight, sc measured after 2 hrs post dose. The class given is ADME, organism-based. The following applies: in vivo.
The target in series [6] is T1, Growth hormone secretagogue receptor type 1. The series is described as follows: Competitive antagonist activity at SNAP-tagged human GHSR expressed in HEK293T cells assessed as reduction in ghrelin-induced inositol phosphate production at 1 uM after 30 mins by HTRF assay. The following applies: read-out: pA2 (converted). Type of series: functional, cell-based.
Series [7] deals with Growth hormone secretagogue receptor type 1 (Rattus norvegicus) (UniProt O08725). The series is described as follows: Inverse agonist activity at GHSR in Wistar rat pancreatic islets assessed as inhibition of ghrelin-induced insulinostatic action after 1 hr in presence of glucose.
Sequence of Growth hormone secretagogue receptor type 1 (Rattus norvegicus) (O08725 whole entry, looked up): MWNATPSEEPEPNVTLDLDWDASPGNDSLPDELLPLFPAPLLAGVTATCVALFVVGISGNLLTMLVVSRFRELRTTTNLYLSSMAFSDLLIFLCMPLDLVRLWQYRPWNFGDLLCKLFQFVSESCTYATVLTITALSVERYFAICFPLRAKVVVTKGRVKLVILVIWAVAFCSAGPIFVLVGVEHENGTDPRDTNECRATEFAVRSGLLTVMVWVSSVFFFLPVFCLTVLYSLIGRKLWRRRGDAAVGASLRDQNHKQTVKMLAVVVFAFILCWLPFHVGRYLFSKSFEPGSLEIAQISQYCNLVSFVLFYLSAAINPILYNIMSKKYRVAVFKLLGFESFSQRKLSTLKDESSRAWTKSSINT

The source made the active and inactive calls. The calls are words filed in the database; no cut-off is given here. Positions of bridges follow the written chain, without caps; N, C: chain ends. Non-standard residues stand in square brackets, D forms with d. Residues, ends and D or L forms follow the SMILES beside them. Nle = CCCC[C@H](N)C(=O)O

The values below come from ChEMBL document CHEMBL4368902 (J Med Chem, 2019).

T1 sequence (Q92847 whole entry): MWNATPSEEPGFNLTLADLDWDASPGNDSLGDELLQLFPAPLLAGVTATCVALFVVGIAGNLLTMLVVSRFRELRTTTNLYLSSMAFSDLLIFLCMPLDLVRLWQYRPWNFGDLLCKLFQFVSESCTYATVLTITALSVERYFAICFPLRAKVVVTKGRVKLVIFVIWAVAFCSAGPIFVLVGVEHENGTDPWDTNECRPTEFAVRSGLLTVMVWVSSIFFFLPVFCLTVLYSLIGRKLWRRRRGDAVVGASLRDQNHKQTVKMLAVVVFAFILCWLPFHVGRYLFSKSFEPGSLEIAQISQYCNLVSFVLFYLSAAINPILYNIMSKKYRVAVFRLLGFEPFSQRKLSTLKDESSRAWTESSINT

Broadly, the EC50 is the concentration that produces a half-maximal response. The term Ki denotes the dissociation constant of the complex between target and ligand, obtained from inhibition or displacement. `CCCC[C@H](N)C(=O)N[C@H](C(=O)N1CCC[C@H]1C(=O)N[C@@H](Cc1ccccc1)C(=O)N[C@@H](Cc1c[nH]c2ccccc12)C(=O)N[C@@H](CCCNC(=N)N)C(N)=O)[C@@H](C)O` (H-[Nle]TPFWR-NH2): the EC50 in series [1] came out at 6630 nM. The compound further had a Ki in series [2] of 55 nM.

As to `CC(C)C[C@H](NC(=O)[C@H](CO)NC(=O)[C@@H]1CSSC[C@@H]2NC(=O)[C@H](CCC(=O)O)NC(=O)[C@H](CO)NC(=O)[C@@H](CC(=O)O)NC(=O)[C@@H](CC(=O)O)NC(=O)[C@@H](CCCNC(=N)N)NC(=O)[C@H](NC(=O)[C@@H](CO)NC(=O)[C@@H](C)N)CSSC[C@H](NC(=O)[C@H](CC(C)C)NC(=O)[C@H](CCCNC(=N)N)NC(=O)[C@H]([C@@H](C)O)NC(=O)[C@H]([C@@H](C)O)NC2=O)C(=O)N[C@@H](CCCNC(=N)N)C(=O)N[C@@H](CCCCN)C(=O)N[C@@H](CCCNC(=N)N)C(=O)N[C@@H](CCCNC(=N)N)C(=O)N1)C(=O)N[C@@H](CO)C(=O)N[C@H](C(=O)N[C@@H](C)C(=O)N[C@@H](CCC(N)=O)C(=O)N[C@@H](CCC(=O)O)C(=O)O)C(C)C`, the result in series [3] was inactive.

With `CCCC[C@H](N)C(=O)N[C@H](C(=O)N1CCC[C@H]1C(=O)N[C@@H](Cc1ccccc1)C(=O)N[C@@H](Cc1c[nH]c2ccccc12)C(=O)N[C@@H](CCCNC(=N)N)C(=O)NCC(=O)N[C@H](C(=O)N[C@@H](CO)C(=O)N[C@@H](CC(C)C)C(=O)N[C@@H](CCCNC(=N)N)C(=O)N1CCC[C@H]1C(=O)N[C@H](C(=O)NCC(N)=O)[C@@H](C)CC)C(C)C)[C@@H](C)O` (H-[Nle]TPFWRGVSLRPIG-NH2), the half-maximal effective concentration (EC50) in series [1] amounted to 48 nM. In series [2], this compound gave a Ki of 3.05 nM.

Consider `CC[C@H](C)[C@@H]1NC(=O)[C@@H]2CSSC[C@@H](C(=O)N[C@@H](CO)C(=O)N[C@@H](CC(C)C)C(=O)N[C@@H](CO)C(=O)N[C@H](C(=O)N[C@@H](C)C(=O)N[C@@H](CCC(N)=O)C(=O)N[C@@H](CCC(=O)O)C(=O)O)C(C)C)NC(=O)[C@H](CCCNC(=N)N)NC(=O)[C@H](CCCNC(=N)N)NC(=O)[C@H](CCCCN)NC(=O)[C@H](CCCNC(=N)N)NC(=O)[C@H](CSSC[C@H](NC(=O)[C@H](CO)NC(=O)[C@H](C)NC(=O)CNC(=O)[C@@H](NC(=O)[C@@H]3CCCN3C(=O)[C@H](CCCNC(=N)N)NC(=O)[C@H](CC(C)C)NC(=O)[C@H](CO)NC(=O)[C@@H](NC(=O)CNC(=O)[C@H](CCCNC(=N)N)NC(=O)[C@H](Cc3c[nH]c4ccccc34)NC(=O)[C@H](Cc3ccccc3)NC(=O)[C@@H]3CCCN3C(=O)[C@@H](NC(=O)[C@@H](N)CCSC)[C@@H](C)O)C(C)C)[C@@H](C)CC)C(=O)N[C@@H](CCCNC(=N)N)C(=O)N[C@@H](CC(=O)O)C(=O)N[C@@H](CC(=O)O)C(=O)N[C@@H](CO)C(=O)N[C@@H](CCC(=O)O)C(=O)N2)NC(=O)[C@H](CC(C)C)NC(=O)[C@H](CCCNC(=N)N)NC(=O)[C@H]([C@@H](C)O)NC1=O` (H-MTPFWRGVSLRPIGASCRDDSECITRLCRKRRCSLSVAQE-OH; disulfide 17-28, 23-33), for which, in series [1], the half-maximal effective concentration (EC50) was 22.8 nM. For the same compound, the Kb in series [4] was 10.2 nM; in series [6], 1.48 nM. This compound showed a Ki in series [2] of 1.26 nM. In addition, the Activity entry in series [5] is “Non-Toxic”.

`CCCC[C@H](N)C(=O)N[C@H](C(=O)N1CCC[C@H]1C(=O)N[C@@H](Cc1ccccc1)C(=O)N[C@@H](Cc1c[nH]c2ccccc12)C(=O)N[C@@H](CCCNC(=N)N)C(=O)NCC(=O)N[C@H](C(=O)N[C@@H](CO)C(=O)N[C@@H](CC(C)C)C(=O)N[C@@H](CCCNC(=N)N)C(=O)N1CCC[C@H]1C(=O)N[C@H](C(=O)NCC(=O)O)[C@@H](C)CC)C(C)C)[C@@H](C)O` (H-[Nle]TPFWRGVSLRPIG-OH): the EC50 in series [1] is 76.4 nM. The Kb in series [4] was 89.1 nM; in series [6], 34.7 nM. The compound further gave a Ki in series [2] of 3.66 nM.

For `CCCC[C@H](N)C(=O)N[C@H](C(=O)N1CCC[C@H]1C(=O)N[C@@H](Cc1ccccc1)C(=O)N[C@@H](Cc1c[nH]c2ccccc12)C(=O)N[C@@H](CCCNC(=N)N)C(=O)NCC(=O)N[C@H](C(N)=O)C(C)C)[C@@H](C)O` (H-[Nle]TPFWRGV-NH2), the EC50 in series [1] was found to be 368 nM. The compound further showed a Ki in series [2] of 6.45 nM.

Turning to `CCCC[C@H](N)C(=O)N[C@H](C(=O)N1CCC[C@H]1C(=O)N[C@@H](Cc1ccccc1)C(=O)N[C@@H](Cc1c[nH]c2ccccc12)C(=O)N[C@@H](CCCNC(=N)N)C(=O)NCC(=O)N[C@H](C(=O)N[C@@H](CO)C(=O)N[C@@H](CC(C)C)C(N)=O)C(C)C)[C@@H](C)O` (H-[Nle]TPFWRGVSL-NH2), the EC50 in series [1] stood at 134 nM. The Ki in series [2] is 3.4 nM.

Take `CC[C@H](C)[C@@H]1NC(=O)[C@@H]2CSSC[C@@H](C(=O)N[C@@H](CO)C(=O)N[C@@H](CC(C)C)C(=O)N[C@@H](CO)C(=O)N[C@H](C(=O)N[C@@H](C)C(=O)N[C@@H](CCC(N)=O)C(=O)N[C@@H](CCC(=O)O)C(=O)O)C(C)C)NC(=O)[C@H](CCCNC(=N)N)NC(=O)[C@H](CCCNC(=N)N)NC(=O)[C@H](CCCCN)NC(=O)[C@H](CCCNC(=N)N)NC(=O)[C@H](CSSC[C@H](NC(=O)[C@H](CO)NC(=O)[C@H](C)N)C(=O)N[C@@H](CCCNC(=N)N)C(=O)N[C@@H](CC(=O)O)C(=O)N[C@@H](CC(=O)O)C(=O)N[C@@H](CO)C(=O)N[C@@H](CCC(=O)O)C(=O)N2)NC(=O)[C@H](CC(C)C)NC(=O)[C@H](CCCNC(=N)N)NC(=O)[C@H]([C@@H](C)O)NC1=O` (H-ASCRDDSECITRLCRKRRCSLSVAQE-OH; disulfide 3-14, 9-19): the Activity result in series [5] is reported as “Non-Toxic”.

Take `CCCC[C@H](N)C(=O)N[C@H](C(=O)N1CCC[C@H]1C(=O)N[C@@H](Cc1ccccc1)C(=O)N[C@@H](Cc1c[nH]c2ccccc12)C(=O)N[C@@H](CCCNC(=N)N)C(=O)NCC(=O)N[C@H](C(=O)N[C@@H](CO)C(=O)N[C@@H](CC(C)C)C(=O)N[C@@H](CCCNC(=N)N)C(=O)N1CCC[C@H]1C(=O)N[C@H](C(=O)NCC(=O)N[C@H](C)C(=O)N[C@H](CO)C(=O)N[C@@H]1CSSC[C@@H]2NC(=O)[C@H](CC(C)C)NC(=O)[C@H](CCCNC(=N)N)NC(=O)[C@H]([C@@H](C)O)NC(=O)[C@H]([C@@H](C)O)NC(=O)[C@H](CSSC[C@@H](C(=O)N[C@@H](CO)C(=O)N[C@@H](CC(C)C)C(=O)N[C@@H](CO)C(=O)N[C@H](C(=O)N[C@@H](C)C(=O)N[C@@H](CCC(N)=O)C(=O)N[C@@H](CCC(=O)O)C(=O)O)C(C)C)NC(=O)[C@H](CCCNC(=N)N)NC(=O)[C@H](CCCNC(=N)N)NC(=O)[C@H](CCCCN)NC(=O)[C@H](CCCNC(=N)N)NC2=O)NC(=O)[C@H](CCC(=O)O)NC(=O)[C@H](CO)NC(=O)[C@@H](CC(=O)O)NC(=O)[C@@H](CC(=O)O)NC(=O)[C@@H](CCCNC(=N)N)NC1=O)[C@@H](C)CC)C(C)C)[C@@H](C)O`: in series [3], the result was Active.

Consider `CCCC[C@H](N)C(=O)N[C@H](C(=O)N1CCC[C@H]1C(=O)N[C@@H](Cc1ccccc1)C(=O)N[C@@H](Cc1c[nH]c2ccccc12)C(=O)N[C@@H](CCCNC(=N)N)C(=O)NCC(=O)N[C@H](C(=O)N[C@@H](CO)C(=O)N[C@@H](CC(C)C)C(=O)N[C@@H](CCCNC(=N)N)C(=O)N1CCC[C@H]1C(N)=O)C(C)C)[C@@H](C)O` (H-[Nle]TPFWRGVSLRP-NH2), for which the EC50 in series [1] was determined as 46 nM. Further, the outcome in series [7] and in series [3] was Active. This compound returned a Ki in series [2] of 2.7 nM. In series [5], the Activity result is reported as “Non-Toxic”.
